Assay results taken from patent US9260481B2, “Peptide derivatives as antibiotics” (priority 2011, dated 2016).

Experiments:
S. aureus ATCC 25923 = type: cell-based, Staphylococcus aureus; conditions: S. aureus ATCC 25923, checkerboard, ~10^4 CFU/mL
Description: Vancomycin, rifampicin, kanamycin, gentamicin, ampicillin, ciprofloxacin and tetracycline (Sigma-Aldrich) were provided as standard powders by the manufacturers.

P. aeruginosa = experiment: Resistance profile of multiresistant clinical isolates; type: cell-based, Pseudomonas aeruginosa; set-up: key: R: resistant; S: sensitive; I: intermediate
S. aureus = experiment: as above; type: cell-based, Staphylococcus aureus; set-up: key: R: resistant; S: sensitive; I: intermediate
[1] = test system: S. aureus Smith ATCC 13709; experiment: Acute lethal infection in mice; type: in vivo, ICR mice
Protocol: Female ICR mice ordered from Harlan Laboratories (Indianapolis, Ind.) weighing 19-21 g were used in experiments of acute lethal infection. Mice were fully immunocompetent. Infection was induced by inoculating intraperitoneally in mice a bacterial suspension of S. aureus Smith ATCC 13709. The bacterial challenges (ca 5 log10 CFU/mouse) were given suspended in 0.5 mL of 20% hog mucin. […] Mortality was tracked out to 5 days post challenge. Animals that remained surviving at the end of the study were humanely euthanized.

[2] = P. aeruginosa multiresistant clinical isolate 5618
[3] = P. aeruginosa multiresistant clinical isolate 35170
[4] = P. aeruginosa multiresistant clinical isolate 42162
[5] = P. aeruginosa multiresistant clinical isolate 401681
[6] = P. aeruginosa multiresistant clinical isolate 512232
[7] = S. aureus multiresistant clinical isolate 16666
[8] = S. aureus multiresistant clinical isolate 20364
[9] = S. aureus multiresistant clinical isolate 20681
[10] = S. aureus multiresistant clinical isolate 21840
[11] = S. aureus multiresistant clinical isolate 23305
[12] = mice, S. aureus 5 log10 CFU/mouse IP, Linezolid 12.5 mg/kg PO at 0 hr, n=6

Row | MIC antibiotic alone (S. aureus ATCC 25923) | SMILES | Susceptibility of isolate to antibacterial (R/S/I) (P. aeruginosa; [2]) | Susceptibility of isolate to antibacterial (R/S/I) (P. aeruginosa; [3]) | Susceptibility of isolate to antibacterial (R/S/I) (P. aeruginosa; [4]) | Susceptibility of isolate to antibacterial (R/S/I) (P. aeruginosa; [5]) | Susceptibility of isolate to antibacterial (R/S/I) (P. aeruginosa; [6]) | Susceptibility of isolate to antibacterial (R/S/I) (S. aureus; [7]) | Susceptibility of isolate to antibacterial (R/S/I) (S. aureus; [8]) | Susceptibility of isolate to antibacterial (R/S/I) (S. aureus; [9]) | Susceptibility of isolate to antibacterial (R/S/I) (S. aureus; [10]) | Susceptibility of isolate to antibacterial (R/S/I) (S. aureus; [11]) | other results
1 | 0.15 µg/mL | CC1(C)S[C@@H]2[C@H](NC(=O)[C@H](N)c3ccccc3)C(=O)N2[C@H]1C(=O)O [Ampicillin] |  |  |  |  |  |  |  |  |  |  | 
2 |  | C[C@H]1[C@H](NC(=O)/C(=N\OC(C)(C)C(=O)O)c2csc(N)n2)C(=O)N1S(=O)(=O)O [Aztreonam] | S | R | I | I | R |  |  |  |  |  | 
3 |  | CO[C@@]1(NC(=O)Cc2cccs2)C(=O)N2C(C(=O)O)=C(COC(N)=O)CS[C@@H]21 [Cefoxitin] |  |  |  |  |  | R | R | R | S | I | 
4 | 0.31 µg/mL | O=C(O)c1cn(C2CC2)c2cc(N3CCNCC3)c(F)cc2c1=O [Ciprofloxacin, ciprofloxacin] |  |  |  |  |  |  |  |  |  |  | 
5 |  | CCC[C@@H]1C[C@@H](C(=O)N[C@@H]([C@H]2O[C@H](SC)[C@H](O)[C@@H](O)[C@H]2O)[C@H](C)Cl)N(C)C1 [Clindamycin] | R | R | R | R | R | R | R | S | S | R | 
6 |  | CC[C@H]1OC(=O)[C@H](C)[C@@H](O[C@H]2C[C@@](C)(OC)[C@@H](O)[C@H](C)O2)[C@H](C)[C@@H](O[C@@H]2O[C@H](C)C[C@H](N(C)C)[C@H]2O)[C@](C)(O)C[C@@H](C)C(=O)[C@H](C)[C@@H](O)[C@]1(C)O [Erythromycin] | R | R | R | R | R | R | R | S | S | R | 
7 |  | C[C@@H](O)[C@H]1C(=O)N2C(C(=O)O)=C(SCCN=CN)C[C@H]12 [Imipenem] | R | R | R | S | R |  |  |  |  |  | 
8 |  | CC(=O)NC[C@H]1CN(c2ccc(N3CCOCC3)c(F)c2)C(=O)O1 [Linezolid, reference compound] |  |  |  |  |  | S | S | S | S | S | Survival of all treated mice ([1]; S. aureus infection, linezolid 12.5 mg/kg PO): survived up to 5 days after infection; Animal deaths Day 0 [1, 12]: 0; Animal deaths Day 1 [1, 12]: 0; Animal deaths Day 2 [1, 12]: 0; Animal deaths Day 3 [1, 12]: 0; Animal deaths Day 4 [1, 12]: 0; Animal deaths Day 5 [1, 12]: 0
9 | 0.012 µg/mL | CO[C@H]1/C=C/O[C@@]2(C)Oc3c(C)c(O)c4c(O)c(c(/C=N/N5CCN(C)CC5)c(O)c4c3C2=O)NC(=O)/C(C)=C\C=C\[C@H](C)[C@H](O)[C@@H](C)[C@@H](O)[C@@H](C)[C@H](OC(C)=O)[C@@H]1C [Rifampicin] |  |  |  |  |  |  |  |  |  |  | 

Row | SMILES | MIC antibiotic alone (S. aureus ATCC 25923) | Susceptibility of isolate to antibacterial (R/S/I) (P. aeruginosa; [2]) | Susceptibility of isolate to antibacterial (R/S/I) (P. aeruginosa; [3]) | Susceptibility of isolate to antibacterial (R/S/I) (P. aeruginosa; [4]) | Susceptibility of isolate to antibacterial (R/S/I) (P. aeruginosa; [5]) | Susceptibility of isolate to antibacterial (R/S/I) (P. aeruginosa; [6]) | Susceptibility of isolate to antibacterial (R/S/I) (S. aureus; [7]) | Susceptibility of isolate to antibacterial (R/S/I) (S. aureus; [8]) | Susceptibility of isolate to antibacterial (R/S/I) (S. aureus; [9]) | Susceptibility of isolate to antibacterial (R/S/I) (S. aureus; [10]) | Susceptibility of isolate to antibacterial (R/S/I) (S. aureus; [11]) | other results
10 | CN(C)[C@@H]1C(O)=C(C(N)=O)C(=O)[C@@]2(O)C(O)=C3C(=O)c4c(O)cccc4[C@@](C)(O)[C@H]3C[C@@H]12 [Tetracycline] | 0.78 µg/mL |  |  |  |  |  |  |  |  |  |  | 
